# Experimental data as given in patent US12134788B2, “Engineered prephenate dehydrogenases and arogenate dehydrogenases and methods of using the same” (Wisconsin Alumni Research Foundation, priority 2017, dated 2024).
# Several values for one entry are separate records, joined by “and”; a condition that tells them apart may be missing. Identical values can stand only once. Like-named read-outs stand apart in the source and are kept apart here.
# Key:
# [1] = tested on: Peanut PDH/ADH (AipaensisVYE8T), Arachis ipaensis, wild type; assay: ADH and PDH assay: steady-state kinetics and Tyr inhibition, peanut PDH/ADH; format: biochemical
# Protocol: (§1) Kinetic parameters of purified recombinant proteins were determined from assays conducted at varying arogenate (19.5 μM-5 mM) and prephenate concentration (23.4 μM-6 mM). Standard assay conditions were 25 mM HEPES pH 7.6, 50 mM KCl and 10% (v/v) ethylene glycol, and 0.5 mM NADP^+ with varied substrate, concentrations. Reactions were initiated by addition of enzyme and incubated at 37° C. monitored every 10-15 seconds at […] using a microplate reader (Tecan Genios). Kinetic parameters were determined by fitting initial velocity data to the Michaelis-Menten equation using the Origin software (OriginLab).
# (§2) Arogenate was prepared by enzymatic conversion of prephenate (Sigma-Aldrich) as previously reported^56. For Tyr inhibition assays, Tyr was dissolved in a slightly basic solution (0.025 N NaOH) due to solubility issues, thus the concentration of lysis buffer was increased to 500 mM HEPES final concentration to buffer against the changes by addition of Tyr in the reaction. Reactions containing varying amounts of Tyr (10 μM-8 mM) with 0.5 mM NADP^+ and either 1 mM arogenate or 0.8 mM prephenate were monitored as above.
# [2] = target: T1, GmncADH (Gm14g05990), soybean (Glycine max) noncanonical arogenate dehydrogenase, wild type (Glycine max, UniProt I1M7P5); assay: ADH and PDH assay: steady-state kinetics and Tyr inhibition, GmncADH wild type; format: biochemical; conditions: 0.5 mM NADP^+, pH 7.6, 37° C.
# T1 construct: wild type
# T1 sequence (I1M7P5 1-266): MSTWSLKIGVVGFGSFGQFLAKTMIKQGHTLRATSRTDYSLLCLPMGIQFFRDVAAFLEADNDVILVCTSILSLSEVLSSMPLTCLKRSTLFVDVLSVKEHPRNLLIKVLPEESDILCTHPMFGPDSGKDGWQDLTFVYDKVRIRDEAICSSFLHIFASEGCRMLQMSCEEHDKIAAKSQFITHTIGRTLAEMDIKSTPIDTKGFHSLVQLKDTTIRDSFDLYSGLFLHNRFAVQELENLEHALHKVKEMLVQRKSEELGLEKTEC
# Protocol: as §1, §2
# [3] = target: T2, MtncADH (Mt5g083530), Medicago truncatula noncanonical arogenate dehydrogenase, wild type (Medicago truncatula, UniProt A0A217FAR3); assay: ADH and PDH assay: steady-state kinetics and Tyr inhibition, MtncADH wild type; format: biochemical; conditions: kcat/Km
# T2 construct: wild type
# T2 sequence (A0A217FAR3 1-266): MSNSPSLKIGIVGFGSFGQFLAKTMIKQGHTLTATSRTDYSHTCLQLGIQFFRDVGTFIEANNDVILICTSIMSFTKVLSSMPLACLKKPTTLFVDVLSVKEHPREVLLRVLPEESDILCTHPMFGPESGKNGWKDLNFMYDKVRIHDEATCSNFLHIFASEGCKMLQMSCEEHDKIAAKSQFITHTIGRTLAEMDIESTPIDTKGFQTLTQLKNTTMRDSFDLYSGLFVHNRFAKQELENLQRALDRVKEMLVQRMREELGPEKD
# Protocol: as §1, §2
# [4] = target: T3, Glycine max GmPDH1 variant N222D, SEQ ID NO: 2 (Glycine max, UniProt I1MYY4, N222D); assay: ADH and PDH assay: steady-state kinetics and Tyr inhibition, GmPDH1 N222D; format: biochemical, Glycine max (soybean)
# T3 sequence (I1MYY4 1-271 N222D): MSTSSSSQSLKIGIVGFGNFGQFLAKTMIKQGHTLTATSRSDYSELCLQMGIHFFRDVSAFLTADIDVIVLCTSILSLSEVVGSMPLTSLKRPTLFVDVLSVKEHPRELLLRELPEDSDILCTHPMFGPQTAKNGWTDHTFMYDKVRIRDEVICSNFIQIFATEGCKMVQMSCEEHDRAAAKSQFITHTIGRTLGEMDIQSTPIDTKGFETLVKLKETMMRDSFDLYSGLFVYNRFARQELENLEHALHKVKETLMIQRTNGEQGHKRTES
# Protocol: as §1, §2
# [5] = target: T4, Medicago truncatula MtPDH variant C220D, SEQ ID NO: 1 (Medicago truncatula, UniProt A0A0A0R205, C220D); assay: ADH and PDH assay: steady-state kinetics and Tyr inhibition, MtPDH C220D; format: biochemical; conditions: compared to wild-type MtPDH
# T4 sequence (A0A0A0R205 1-268 C220D): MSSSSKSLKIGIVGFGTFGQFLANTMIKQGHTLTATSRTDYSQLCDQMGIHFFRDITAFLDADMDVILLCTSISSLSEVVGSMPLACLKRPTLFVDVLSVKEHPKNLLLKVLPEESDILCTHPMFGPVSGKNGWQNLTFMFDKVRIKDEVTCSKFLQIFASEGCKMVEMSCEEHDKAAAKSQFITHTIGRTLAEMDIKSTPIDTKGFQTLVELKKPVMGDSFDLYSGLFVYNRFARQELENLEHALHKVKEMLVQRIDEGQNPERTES
# Protocol: as §1, §2
# [6] = target: T5, Glycine max GmncADH variant D218N (Glycine max, UniProt I1M7P5, D218N); assay: ADH and PDH assay: steady-state kinetics and Tyr inhibition, GmncADH D218N; format: biochemical, Glycine max (soybean); conditions: versus wild-type GmncADH
# T5 construct: D218N by site-directed mutagenesis
# Protocol: as §1, §2
# [7] = tested on: Methanosaeta harundinacea MhTyrAp variant Q227E; assay: Kinetic analysis of MhTyrAp Q227E mutant; format: biochemical
# Protocol: (§3) FIGS. 14A-14B show a kinetic analysis of MhTyrAp wild-type and Q227E mutant enzymes. Kinetic analysis was performed with MhTyrAp wild-type (filled circle) and Q227E mutant (open square) enzymes using various concentrations of prephenate (FIG. 14A) and arogenate (FIG. 14B). Initial velocity values at each substrate concentration were fit to the Michaelis-Menten equation using Origin software. Kinetic analyses were conducted for MhTyrA wild-type using 3.41 μg of purified recombinant enzyme, and 4.56 μg and 2.28 μg of purified recombinant Q227E using prephenate and arogenate, respectively.
# (§4) ADH and PDH assays were performed using purified recombinant enzymes for SsTyrA and MhTyrA Wt and Q227E mutant, while the E. coli cell lysate was used for OiTyrA as expression and purification of this enzyme was unsuccessful. Reactions contained 0.8 mM substrate (arogenate or prephenate) and 0.8 mM cofactor (NADP+ or NAD+) together with reaction buffer (25 mM HEPES pH 7.6, 50 mM KCl, 10% (v/v) ethylene glycol). For OiTyrA assays containing cell lysates, reactions were incubated for 45 minutes and analyzed using HPLC as previously reported (Schenck et al., 2015). For pure enzymes, reactions were monitored every 10-15 seconds for reduced cofactor at A340 nm using a microplate reader (Tecan Genios). Kinetic parameters of purified recombinant enzymes were determined from assays containing varying concentrations of arogenate (39.1 μM-5 mM) or prephenate (39.1 μM-5 mM) substrate and monitored 10-15 seconds for reduced cofactor at A340 nm using a microplate reader (Tecan Genios). Kinetic parameters were determined by fitting initial velocity data to the Michaelis-Menten equation using Origin software (OriginLab) from technical replicate assays (n=3). Arogenate substrate was prepared by enzymatic conversion of prephenate (Sigma-Aldrich). All enzyme assays were conducted at a reaction time and protein concentration that were in the linear range and proportional to reaction velocity.
# [8] = target: T6, GmPDH1 (Gm18g02650), soybean (Glycine max) prephenate dehydrogenase, wild type (Glycine max, UniProt I1MYY4); assay: ADH and PDH assay: steady-state kinetics and Tyr inhibition, GmPDH1 wild type; format: biochemical
# T6 construct: homodimer
# T6 sequence (I1MYY4 1-271): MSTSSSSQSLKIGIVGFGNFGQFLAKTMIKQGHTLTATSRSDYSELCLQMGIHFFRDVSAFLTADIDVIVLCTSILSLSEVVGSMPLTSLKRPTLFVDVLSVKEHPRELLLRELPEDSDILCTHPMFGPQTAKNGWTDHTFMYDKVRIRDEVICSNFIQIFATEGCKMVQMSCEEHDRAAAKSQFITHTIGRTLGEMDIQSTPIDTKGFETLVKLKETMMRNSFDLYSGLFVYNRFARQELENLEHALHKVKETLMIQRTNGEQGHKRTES
# Protocol: as §1
# as §2, with “Reactions containing varying amounts of Tyr (10 μM-8 mM) with 0.5 mM NADP^+ and either 1 mM arogenate or 0.8 mM prephenate were monitored as above.” left out
# [9] = target: T7, MtPDH (MtPDH1; Mt3g071980), Medicago truncatula prephenate dehydrogenase, wild type (Medicago truncatula, UniProt A0A0A0R205); assay: ADH and PDH assay: steady-state kinetics and Tyr inhibition, MtPDH wild type; format: biochemical; conditions: preference for prephenate
# T7 sequence (A0A0A0R205 1-268): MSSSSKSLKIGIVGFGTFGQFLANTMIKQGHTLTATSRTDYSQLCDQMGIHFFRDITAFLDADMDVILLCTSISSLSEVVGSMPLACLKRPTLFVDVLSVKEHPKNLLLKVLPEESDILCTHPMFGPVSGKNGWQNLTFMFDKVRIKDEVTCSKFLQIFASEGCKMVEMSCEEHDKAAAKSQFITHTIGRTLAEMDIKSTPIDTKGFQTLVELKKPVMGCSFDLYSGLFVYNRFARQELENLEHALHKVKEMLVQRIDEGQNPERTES
# Protocol: as §1
# as §2, with “Reactions containing varying amounts of Tyr (10 μM-8 mM) with 0.5 mM NADP^+ and either 1 mM arogenate or 0.8 mM prephenate were monitored as above.” left out
# [10] = target: T8, Medicago truncatula MtncADH variant D220C, SEQ ID NO: 10 (Medicago truncatula, UniProt A0A217FAR3, D220C); assay: ADH and PDH assay: steady-state kinetics and Tyr inhibition, MtncADH D220C; format: biochemical; conditions: kcat/Km
# T8 construct: D220C by site-directed mutagenesis
# T8 sequence (A0A217FAR3 1-266 D220C): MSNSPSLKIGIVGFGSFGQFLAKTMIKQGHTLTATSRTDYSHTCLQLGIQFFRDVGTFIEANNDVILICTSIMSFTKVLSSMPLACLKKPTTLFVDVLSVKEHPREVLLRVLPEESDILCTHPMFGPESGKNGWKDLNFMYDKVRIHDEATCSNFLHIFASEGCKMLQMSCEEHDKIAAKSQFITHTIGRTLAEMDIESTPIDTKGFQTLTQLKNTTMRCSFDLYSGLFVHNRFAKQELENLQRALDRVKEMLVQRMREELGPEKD
# Protocol: as §1, §2
# [11] = tested on: MhTyrA (MhTyrAp; KUK94425.1), Methanosaeta harundinacea TyrA, wild-type; assay: Kinetic analysis of MhTyrAp wild-type; format: biochemical; conditions: NADP+ cofactor
# Protocol: as §3, §4
# [12] = NADP+ cofactor, pH 7.6, read-out: Km
# T5 sequence (I1M7P5 1-266 D218N): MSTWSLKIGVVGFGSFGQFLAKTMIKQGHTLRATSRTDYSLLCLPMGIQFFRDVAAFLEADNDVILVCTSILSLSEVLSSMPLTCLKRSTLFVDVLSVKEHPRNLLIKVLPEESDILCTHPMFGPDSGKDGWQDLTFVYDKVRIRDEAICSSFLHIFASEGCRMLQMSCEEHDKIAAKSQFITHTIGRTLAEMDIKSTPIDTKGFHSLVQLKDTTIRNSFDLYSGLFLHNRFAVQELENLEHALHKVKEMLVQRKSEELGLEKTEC
smiles,measurement,setting,value
N[C@@H](CC1(C(=O)O)C=CC(O)C=C1)C(=O)O (stereo partly shown) [arogenate],Km,"[1]; 0.5 mM NADP^+, pH 7.6, 37° C.",280 ± 30 µM
same,kcat,"[1]; 0.5 mM NADP^+, pH 7.6, 37° C.",3.2 ± 0.1 s⁻¹
same,kcat/Km,"[1]; 0.5 mM NADP^+, pH 7.6, 37° C.","11,430 M^−1 s^−1"
same,kcat/Km,"[1]; FIG. 7A, with NADP^+",11.6 mM⁻¹ s⁻¹
same,kcat,[2],27.7 s⁻¹
same,fold more efficient (preference) with arogenate over prephenate,[3],"~6,200 fold and 6,190 fold"
same,kcat,"[4]; 0.5 mM NADP^+, pH 7.6, 37° C.",27.8 s⁻¹
same,fold lower Km,[5],3 fold
same,fold reduction of kcat/Km for ADH,[6],~6 fold
same,fold higher Km than that of wild-type for prephenate,[7],10 fold
same,fold higher catalytic efficiency with arogenate than with prephenate,[7],roughly 2 fold
same,kcat,"[7]; NADP+ cofactor, pH 7.6",0.704 ± 0.06 s⁻¹
same,kcat/Km,"[7]; NADP+ cofactor, pH 7.6",200 M⁻¹ s⁻¹ and 213 ± 10 M⁻¹ s⁻¹
same,Km,[7]; [12],3300 µM and 3290 µM
O=C(O)C(=O)CC1(C(=O)O)C=CC(O)C=C1 (stereo not shown) [prephenate],kcat,"[8]; 0.5 mM NADP^+, pH 7.6, 37° C.",30.4 s⁻¹
same,"fold higher kcat/Km, prephenate versus arogenate",[8]; preference for prephenate,139 fold
same,"fold higher kcat/Km, prephenate versus arogenate",[9],21 fold
same,Km,"[1]; 0.5 mM NADP^+, pH 7.6, 37° C.",190 ± 10 µM
same,kcat,"[1]; 0.5 mM NADP^+, pH 7.6, 37° C.",2.8 ± 0.2 s⁻¹
same,kcat/Km,"[1]; 0.5 mM NADP^+, pH 7.6, 37° C.","14,740 M^−1 s^−1"
same,kcat/Km,"[1]; FIG. 7A, with NADP^+",14.9 mM⁻¹ s⁻¹
same,fold reduction in kcat/Km with prephenate,[4]; versus wild-type GmPDH1,115 fold
same,fold higher Km,[5],31 fold
same,fold preference for prephenate over arogenate,[10],1.7 fold
same,Km,[11],378 µM
same,Km,[11]; pH 7.6,378 ± 20 µM
same,kcat,[11]; pH 7.6,2.4 s⁻¹ and 2.44 ± 0.38 s⁻¹
same,kcat/Km,[11]; pH 7.6,6400 M⁻¹ s⁻¹ and 6440 ± 20 M⁻¹ s⁻¹
same,kcat,"[7]; NADP+ cofactor, pH 7.6",0.285 ± 0.17 s⁻¹
same,kcat/Km,"[7]; NADP+ cofactor, pH 7.6",100 M⁻¹ s⁻¹ and 107 ± 10 M⁻¹ s⁻¹
same,Km,[7]; [12],2700 µM and 2670 µM
same,Km,[7]; read-out: Km for prephenate,2400 µM
same,fold increase in Km for prephenate,[7]; versus wild-type,~10 fold
same,fold reduction of catalytic efficiency (kcat/Km),[7]; versus wild-type,60 fold
